# Legend:
# Test in all cases: Postemergence herbicidal activity, greenhouse trial (visual injury 0-100%)
# Assay type in all cases: in vivo
# [1] = system: wild buckwheat (Polygonum convolvulus, POLCO)
# Description: (§1) Seeds of the desired test plant species were planted in Sun Gro MetroMix® 306 planting mixture, which typically has a pH of 6.0 to 6.8 and an organic matter content of about 30 percent, in plastic pots with a surface area of 103.2 square centimeters (cm^2). […] The plants were grown for 7-36 days (d) in a greenhouse with an approximate 14-hour (h) photoperiod which was maintained at about 23° C. during the day and 22° C. during the night. Nutrients and water were added on a regular basis and supplemental lighting was provided with overhead metal halide 1000-Watt lamps as necessary. The plants were employed for testing when they reached the second or third true leaf stage.
# (§2) Weighed amounts of technical or formulated material (emulsifiable concentrate (EC) or soluble concentrate (SL)) were dissolved in a volume of 97:3 volume per volume (v/v) acetone/dimethyl sulfoxide (DMSO) to stock solutions. […] The concentrated stock solutions were diluted with an aqueous mixture of 1.5% v/v of Agri-dex crop oil concentrate to provide the appropriate application rates. Compound requirements are based upon a 12 milliliter (mL) application volume at a rate of 187 liters per hectare (L/ha). Spray solutions of the experimental compound mixtures were prepared by adding the stock solutions to the appropriate amount of dilution solution to form a 12 mL spray solution in two-way combinations. Formulated compounds were applied to the plant material with an overhead Mandel track sprayer equipped with 8002E nozzles calibrated to deliver 187 L/ha over an application area of 0.503 square meters (m^2) at a spray height of 18 inches (43 centimeters (cm)) above average plant canopy. Control plants were sprayed in the same manner with the solvent blank. Application rates for component (a) are in g ae/ha, and application rates for component (b) are in g ai/ha.
# (§3) The treated plants and control plants were placed in a greenhouse as described above and watered by sub-irrigation to prevent wash-off of the test compounds. After 20-22 d, the condition of the test plants as compared with that of the control plants was determined visually and scored on a scale of 0 to 100 percent where 0 corresponds to no injury and 100 corresponds to complete kill. Colby's equation was used to determine the herbicidal effects expected from the mixtures. […]
# (§4) Weighed amounts of technical material were dissolved in a volume of 97:3 volume per volume (v/v) acetone/dimethyl sulfoxide (DMSO) to stock solutions. […] The concentrated stock solutions were diluted with an aqueous mixture of 1.5% v/v of Agri-dex crop oil concentrate to provide the appropriate application rates. Compound requirements are based upon a 12 milliliter (mL) application volume at a rate of 187 liters per hectare (L/ha).
# [2] = system: chickweed (Stellaria media, STEME); conditions: for pest or weed control: 4.375 g ai/ha
# Description: as §1, §2
# (§5) The treated plants and control plants were placed in a greenhouse as described above and watered by sub-irrigation to prevent wash-off of the test compounds. After 20-22 d, the condition of the test plants as compared with that of the control plants was determined visually and scored on a scale of 0 to 100 percent where 0 corresponds to no injury and 100 corresponds to complete kill. The condition of the test plants was compared with that of the control plants as determined visually and scored on a scale of 0 to 100 percent, where 0 corresponds to no injury and 100 corresponds to complete kill. Colby's equation was used to determine the herbicidal effects expected from the mixtures.
# (§6) Compound 1 was formulated as an EC and was combined with florasulam, cloransulam, diclosulam, flumetsulam, penoxsulam, or pyroxsulam. Compound 2 was formulated as an EC and was combined with florasulam or pyroxsulam. The mixtures were applied to winter wheat (TRZAW), common rice (ORYSA), maize (ZEAMX), and the phytotoxicity of the herbicidal compositions was measured. In addition, the efficacy of the herbicidal compositions on blackgrass (Alopecurus myosuroides, ALOMY), pigweed (Amaranthus retrollexus, AMARE), wild oat (Avena fatua, AVEFA), common lambsquarters (Chenopodium album L., CHEAL), thistle (Cirsium arvense CIRAR), nutsedge (Cyperus esculentus, CYPES), barnyardgrass (Echinochloa crus-galli, ECHCG), poinsettia (Euphorbia heterophylla, EPHHL), ivyleaf morning-glory (Ipomoea hederacea, IPOHE), kochia (Kochia scoparia, KCHSC), wild buckwheat (Polygonum convolvulus, POLCO), grain sorghum (Sorghum vulgare, SORVU), chickweed (Stellaria media, STEME), wild pansy (Viola tricolor, VIOTR), was evaluated.
# as §4, with “(L/ha). […]” for “(L/ha).”
# [3] = system: nutsedge (Cyperus esculentus, CYPES); conditions: Cyperus, post-emergence, read-out: % visual injury Obs; for pest or weed control: 4.375 g ai/ha
# Description: as §1
# as §2, with “technical” for “technical or formulated”, “material” for “material (emulsifiable concentrate (EC) or soluble concentrate (SL))”
# as §3, §2
# [4] = system: thistle (Cirsium arvense, CIRAR); conditions: for pest or weed control: 4.375 g ai/ha
# Description: as §1, §2, §3, §4
# [5] = system: kochia (Kochia scoparia, KCHSC); conditions: for pest or weed control: 4.375 g ai/ha
# Description: as §1, §2, §3, §4
# [6] = system: ivyleaf morning-glory (Ipomoea hederacea, IPOHE)
# Description: as §1, §2, §5, §6
# as §4, with “(L/ha). […]” for “(L/ha).”
# [7] = system: barnyardgrass (Echinochloa crus-galli, ECHCG); conditions: Echinochloa crus-galli, post-emergence, read-out: % visual injury Obs
# Description: as §1, §2, §5, §6
# as §4, with “(L/ha). […]” for “(L/ha).”
# [8] = system: common lambsquarters (Chenopodium album L., CHEAL); conditions: Chenopodium album, post-emergence, 4.375 g ai/ha; read-out: % visual injury Obs
# Description: as §1, §2, §5, §6
# as §4, with “(L/ha). […]” for “(L/ha).”
# [9] = system: poinsettia (Euphorbia heterophylla, EPHHL); conditions: Euphorbia heterophylla, post-emergence; 4.375 g ai/ha; read-out: % visual injury Obs
# Description: as §1
# as §2, with “technical” for “technical or formulated”, “material” for “material (emulsifiable concentrate (EC) or soluble concentrate (SL))”
# as §3, §2
# [10] = system: pigweed (Amaranthus retroflexus, AMARE); conditions: for pest or weed control: 4.375 g ai/ha
# Description: as §1, §2, §3, §4
# [11] = system: wild pansy (Viola tricolor, VIOTR); conditions: Viola tricolor, post-emergence, VIOTR, read-out: % visual injury Obs
# Description: as §1, §2, §5
# as §6, with “Compound 1 was formulated as an EC and was combined with florasulam, cloransulam, diclosulam, flumetsulam, penoxsulam, or pyroxsulam.” left out
# as §4
# [12] = Stellaria media, post-emergence, read-out: % visual injury Obs
# [13] = Cirsium arvense, post-emergence, read-out: % visual injury Obs
# [14] = Bassia scoparia, post-emergence, read-out: % visual injury Obs
# [15] = Amaranthus retroflexus, post-emergence, read-out: % visual injury Obs
molecule,measurement,setting,value
COC(=O)c1ccc(I)cc1S(=O)(=O)[N-]C(=O)Nc1nc(C)nc(OC)n1.[Na+],pest or weed control at 2.5 g/ha,"[1]; Fallopia convolvulus, post-emergence, POLCO, iodosulfuron 2.5 g ai/ha, read-out: % visual injury Obs",80%
COC(=O)c1csc(C)c1S(=O)(=O)NC(=O)n1nc(OC)n(C)c1=O,pest or weed control at 5 g/ha,"[2]; Stellaria media, post-emergence, 5 g ai/ha, read-out: % visual injury Obs",95%
same,pest or weed control at 5 g/ha,[3]; 5 g ai/ha,70%
same,pest or weed control at 5 g/ha,"[4]; Cirsium arvense, post-emergence, 5 g ai/ha, read-out: % visual injury Obs",50%
same,pest or weed control at 5 g/ha,"[5]; Bassia scoparia, post-emergence, 5 g ai/ha, read-out: % visual injury Obs",10%
COC(=O)c1sccc1S(=O)(=O)NC(=O)Nc1nc(C)nc(OC)n1,pest or weed control at 15 g/ha,"[6]; Ipomoea hederacea, post-emergence, IPOHE, thifensulfuron 15 g ai/ha, read-out: % visual injury Obs",85%
same,pest or weed control at 15 g/ha,"[7]; ECHCG, thifensulfuron 15 g ai/ha",10%
same,pest or weed control at 15 g/ha,"[3]; CYPES, thifensulfuron 15 g ai/ha",0%
same,pest or weed control at 15 g/ha,"[4]; Cirsium arvense, post-emergence, CIRAR, thifensulfuron 15 g ai/ha, read-out: % visual injury Obs",10%
COC(=O)c1ccccc1S(=O)(=O)NC(=O)N(C)c1nc(C)nc(OC)n1,pest or weed control at […],"[6]; Ipomoea hederacea, post-emergence, IPOHE, tribenuron 7.5 g ai/ha, read-out: % visual injury Obs",65%
same,pest or weed control at […],"[3]; CYPES, tribenuron 7.5 g ai/ha",0%
same,pest or weed control at […],"[5]; Bassia scoparia, post-emergence, KCHSC, tribenuron 7.5 g ai/ha, read-out: % visual injury Obs",70%
same,pest or weed control at […],"[1]; Fallopia convolvulus, post-emergence, POLCO, tribenuron 7.5 g ai/ha, read-out: % visual injury Obs",90%
"CCOc1nc(F)cc2nc(S(=O)(=O)Nc3c(Cl)cccc3C(=O)OC)nn12 [Cloransulam, cloransulam]",pest or weed control,[2]; [12],0%
same,pest or weed control,[8],0%
same,pest or weed control,[9],30%
same,pest or weed control,[3],50%
same,pest or weed control,[4]; [13],99%
same,pest or weed control,[5]; [14],0%
same,pest or weed control,[10]; [15],0%
same,pest or weed control,"[1]; Fallopia convolvulus, post-emergence, 4.375 g ai/ha, read-out: % visual injury Obs",85%
"CCOc1nc(F)cc2nc(S(=O)(=O)Nc3c(Cl)cccc3Cl)nn12 [Diclosulam, diclosulam]",pest or weed control,[2]; [12],0%
same,pest or weed control,"[6]; Ipomoea hederacea, post-emergence, 4.375 g ai/ha, read-out: % visual injury Obs",93%
same,pest or weed control,[8],0%
same,pest or weed control,[7]; 4.375 g ai/ha,30%
same,pest or weed control,[9],60%
same,pest or weed control,[3],50%
same,pest or weed control,[4]; [13],93%
same,pest or weed control,[5]; [14],50%
same,pest or weed control,[10]; [15],60%
"CCOc1ccccc1OS(=O)(=O)NC(=O)Nc1nc(OC)cc(OC)n1 [Ethoxysulfuron, ethoxysulfuron]",pest or weed control at 10 g/ha,"[2]; Stellaria media, post-emergence, STEME, ethoxysulfuron 10 g ai/ha, read-out: % visual injury Obs",10%
same,pest or weed control at 10 g/ha,"[5]; Bassia scoparia, post-emergence, KCHSC, ethoxysulfuron 10 g ai/ha, read-out: % visual injury Obs",0%
same,pest or weed control at 10 g/ha,"[10]; Amaranthus retroflexus, post-emergence, AMARE, ethoxysulfuron 10 g ai/ha, read-out: % visual injury Obs",20%
same,pest or weed control at 10 g/ha,[11]; ethoxysulfuron 10 g ai/ha,40%
"CCS(=O)(=O)c1nc2ccccn2c1S(=O)(=O)NC(=O)Nc1nc(OC)cc(OC)n1 [Sulfosulfuron, sulfosulfuron]",pest or weed control at 8.75 g/ha,"[3]; CYPES, sulfosulfuron 8.75 g ai/ha",80%
same,pest or weed control at 8.75 g/ha,"[4]; Cirsium arvense, post-emergence, CIRAR, sulfosulfuron 8.75 g ai/ha, read-out: % visual injury Obs",85%
same,pest or weed control at 8.75 g/ha,"[1]; Fallopia convolvulus, post-emergence, POLCO, sulfosulfuron 8.75 g ai/ha, read-out: % visual injury Obs",80%
same,pest or weed control at 8.75 g/ha,[11]; sulfosulfuron 8.75 g ai/ha,80%
halosulfuron,% visual injury Obs,"[2]; STEME, halosulfuron 17.5 g ai/ha",50%
same,% visual injury Obs,"[6]; IPOHE, halosulfuron 17.5 g ai/ha",20%
same,% visual injury Obs,"[4]; CIRAR, halosulfuron 8.75 g ai/ha",10%
same,% visual injury Obs,"[5]; KCHSC, halosulfuron 17.5 g ai/ha",0%
same,% visual injury Obs,"[10]; AMARE, halosulfuron 17.5 g ai/ha",30%
same,% visual injury Obs,"[1]; POLCO, halosulfuron 8.75 g ai/ha",30%

# From US20190364896A1, “SYNERGISTIC WEED CONTROL FROM APPLICATIONS OF PYRIDINE CARBOXYLIC ACID HERBICIDES AND ALS INHIBITORS” (Dow AgroSciences LLC, priority 2014, published 2019)
